Several values for one entry are separate records, joined by “and”; a condition that tells them apart may be missing. Equal entries are not always repeated. Inconclusive results and toxic doses are left out.
Tested on: L1210 leukemia ip in BDF1 mice, survival T/C
Assay: NCI In Vivo Anticancer Drug Screen. Data for tumor model L1210 Leukemia (intraperitoneal) in B6D2F1 (BDF1) mice
Details: endpoint: mean survival time, higher = longer survival
Procedure, shortened: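 Survival endpoint. Drug-treated group vs vehicle group, expressed as T divided by C. Tumor passaged by transplantation.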

[1] = dose: 100.0 mg/kg/injection, schedule: Q04DX003 (ip), vehicle: saline with Tween-80
[2] = dose: 200.0 mg/kg/injection, schedule: Q04DX003 (ip), vehicle: saline with Tween-80
[3] = dose: 400.0 mg/kg/injection, schedule: Q04DX003 (ip), vehicle: saline with Tween-80
[4] = dose: 100.0 mg/kg/injection, schedule: Q04DX003 (ip), vehicle: Klucel (hydroxypropylcellulose) (HPC)
[5] = dose: 200.0 mg/kg/injection, schedule: Q04DX003 (ip), vehicle: Klucel (hydroxypropylcellulose) (HPC)
[6] = dose: 400.0 mg/kg/injection, schedule: Q04DX003 (ip), vehicle: Klucel (hydroxypropylcellulose) (HPC)
[7] = dose: 150.0 mg/kg/injection, schedule: Q01DX001 (ip), vehicle: saline

O=C(Nc1ccc(C2=NCCN2)cc1)c1cccc2c(C(=O)Nc3ccc(C4=NCCN4)cc3)cccc12
T/C (dose: 9.7 mg/kg/injection, schedule: Q01DX Z (ip), vehicle: carboxymethylcellulose (CMC)): 94 % of control
T/C (dose: 14.6 mg/kg/injection, schedule: Q01DX Z (ip), vehicle: carboxymethylcellulose (CMC)): 107 % of control
T/C (dose: 22.0 mg/kg/injection, schedule: Q01DX Z (ip), vehicle: carboxymethylcellulose (CMC)): 122 % of control
T/C (dose: 30.0 mg/kg/injection, schedule: Q01DX Z (ip), vehicle: carboxymethylcellulose (CMC)): 156 % of control
T/C (dose: 33.0 mg/kg/injection, schedule: Q01DX Z (ip), vehicle: carboxymethylcellulose (CMC)): 124 % of control
T/C (dose: 49.0 mg/kg/injection, schedule: Q01DX Z (ip), vehicle: carboxymethylcellulose (CMC)): 155 % of control
T/C (dose: 60.0 mg/kg/injection, schedule: Q01DX Z (ip), vehicle: carboxymethylcellulose (CMC)): 204 % of control
T/C (dose: 74.0 mg/kg/injection, schedule: Q01DX Z (ip), vehicle: carboxymethylcellulose (CMC)): 155 % of control
T/C (dose: 111.0 mg/kg/injection, schedule: Q01DX Z (ip), vehicle: carboxymethylcellulose (CMC)): 176 % of control
T/C (dose: 120.0 mg/kg/injection, schedule: Q01DX Z (ip), vehicle: carboxymethylcellulose (CMC)): 175 % of control

COc1ncnc2c1ncn2C1CC(CO)C(O)C1O (configuration not stated)
T/C (dose: 25.0 mg/kg/injection, schedule: Q01DX009 (ip), vehicle: saline): 102 % of control
T/C (dose: 50.0 mg/kg/injection, schedule: Q01DX009 (ip), vehicle: saline): 95 % of control
T/C (dose: 100.0 mg/kg/injection, schedule: Q01DX009 (ip), vehicle: saline): 91 % of control

O=C(O)CCCCCCCCCCCCCCCO
T/C [1]: 96 % of control
T/C [2]: 96 % of control
T/C [3]: 91 % of control

Clc1ccc(COCc2ccccc2COCc2ccc(Cl)cc2Cl)c(Cl)c1
T/C [4]: 93 % of control
T/C [5]: 96 % of control
T/C [6]: 88 % of control

CC/C=C(\C)C1(CC)C(=O)N=C(N)NC1=O (configuration not stated)
T/C [7]: 105 % of control

Cc1cc(C)[n+]2ccccc2n1
T/C (dose: 75.0 mg/kg/injection, schedule: Q01DX001 (ip), vehicle: saline): 102 % of control
T/C [7]: 98 % of control

CN1C(=O)OC2C3NC(=O)OC3C(O)C(O)C21 (configuration not stated)
T/C (dose: 50.0 mg/kg/injection, schedule: Q01DX001 (ip), vehicle: carboxymethylcellulose (CMC)): 109 % of control
T/C (dose: 100.0 mg/kg/injection, schedule: Q01DX001 (ip), vehicle: carboxymethylcellulose (CMC)): 109 % of control
T/C (dose: 200.0 mg/kg/injection, schedule: Q01DX001 (ip), vehicle: carboxymethylcellulose (CMC)): 107 % of control
T/C (dose: 400.0 mg/kg/injection, schedule: Q01DX001 (ip), vehicle: carboxymethylcellulose (CMC)): 102 % of control

COc1ccc2cc3[n+](cc2c1OC)CCc1cc2c(cc1-3)OCO2
T/C (dose: 3.12 mg/kg/injection, schedule: Q01DX009 (ip), vehicle: Klucel (hydroxypropylcellulose) (HPC)): 110 % of control
T/C (dose: 5.0 mg/kg/injection, schedule: Q01DX001 (ip), vehicle: saline): 103 % of control
T/C (dose: 6.25 mg/kg/injection, schedule: Q01DX009 (ip), vehicle: Klucel (hydroxypropylcellulose) (HPC)): 117 % of control
T/C (dose: 10.0 mg/kg/injection, schedule: Q01DX001 (ip), vehicle: saline): 109 % of control
T/C (dose: 12.0 mg/kg/injection, schedule: Q01DX Z (ip), vehicle: saline): 114 % of control
T/C (dose: 12.5 mg/kg/injection, schedule: Q01DX009 (ip), vehicle: Klucel (hydroxypropylcellulose) (HPC)): 101 % of control and 106 % of control
T/C (dose: 20.0 mg/kg/injection, schedule: Q01DX001 (ip), vehicle: saline): 109 % of control

C[CH2][Sn](=[S])[S][Sn](=[S])[CH2]C
T/C (dose: 100.0 mg/kg/injection, schedule: Q04DX002 (ip), vehicle: saline with Tween-80): 102 % of control
T/C (dose: 200.0 mg/kg/injection, schedule: Q04DX002 (ip), vehicle: saline with Tween-80): 94 % of control
T/C (dose: 400.0 mg/kg/injection, schedule: Q04DX002 (ip), vehicle: saline with Tween-80): 97 % of control

O=S1(=O)c2ccc(cc2)N=CC=Nc2ccc1cc2
T/C [1]: 92 % of control
T/C [2]: 90 % of control
T/C [3]: 89 % of control

COC1OC2COC(c3ccccc3)OC2C(O)C1NC(=O)c1ccccc1 (configuration not stated)
T/C [4]: 110 % of control
T/C [5]: 94 % of control
T/C [6]: 111 % of control

Source: PubChem BioAssay AID248 (DTP/NCI, 2004)
